The nature of data set [1]: Equilibrium solubility determined after stirring the compound in buffered solution for more than 5 hours at pH 7.4. The format is ADME.
In data set [2] the target is T1, Cholecystokinin receptor type A (Rattus norvegicus, UniProt P30551).
T1 sequence (P30551 whole entry): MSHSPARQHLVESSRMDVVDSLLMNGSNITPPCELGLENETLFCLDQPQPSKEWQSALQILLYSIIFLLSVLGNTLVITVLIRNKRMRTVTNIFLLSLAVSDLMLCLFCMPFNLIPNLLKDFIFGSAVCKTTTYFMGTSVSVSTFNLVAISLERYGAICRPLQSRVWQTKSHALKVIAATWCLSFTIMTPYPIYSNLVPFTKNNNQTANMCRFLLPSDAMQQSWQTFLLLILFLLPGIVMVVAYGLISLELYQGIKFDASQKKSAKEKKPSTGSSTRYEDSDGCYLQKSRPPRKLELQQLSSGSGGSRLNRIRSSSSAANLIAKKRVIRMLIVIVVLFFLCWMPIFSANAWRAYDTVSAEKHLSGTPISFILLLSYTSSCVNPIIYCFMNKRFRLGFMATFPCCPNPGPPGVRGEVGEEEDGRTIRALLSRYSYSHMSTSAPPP
Put plainly: The compound was tested for binding activity against Cholecystokinin type A receptor from rat pancreatic tissue using [125]BH CCK-A as radioligand.

Data set [3] concerns the target T1, Cholecystokinin receptor type A. Put plainly: The compound was tested for binding activity against Cholecystokinin type A receptor from rat pancreas using [125]BH CCK-8s as radioligand.
Data set [4] in a line: Equilibrium solubility determined after stirring the compound in buffered solution for more than 5 hours at pH 8.0. The format is ADME.
A short description of data set [5]: Equilibrium solubility determined after stirring the compound in buffered solution for more than 5 hours at pH 8.00. The format is ADME.
Data set [6] in a line: Equilibrium solubility determined after stirring the compound in buffered solution for more than 5 hours at pH 7. The format is ADME.

Converted amounts (≈) assume the structure as drawn.

The molecule `CN1C(=O)[C@@H](NC(=O)Nc2ccc(-c3nnn[nH]3)cc2)N=C(c2ccccc2)c2ccccc21` had a solubility (thermodynamic) at 5 h in data set [1] of 3740 µg/mL (≈ 8.27 mM). Besides, the IC50 in data set [2] came out at 577 nM. On to `CN1C(=O)[C@@H](NC(=O)Nc2ccc(-c3noc(O)n3)cc2)N=C(c2ccccc2)c2ccccc21`, for which the IC50 in data set [3] was determined as 983 nM. For the same molecule, the solubility (thermodynamic) at 5 h in data set [4] was 1660 µg/mL (≈ 3.54 mM); in data set [1], 410 µg/mL (≈ 0.875 mM). Take `CC(C)CN1C(=O)[C@H](NC(=O)Nc2ccc(-c3nnn[nH]3)cc2)N=C(c2ccccc2)c2ccccc21`: the concentration for half-maximal inhibition (IC50) in data set [3] is 379 nM. `Cc1ccc(NC(=O)N[C@H]2N=C(c3ccccc3)c3ccccc3N(C)C2=O)cc1` registered an IC50 in data set [3] of 736 nM. This molecule yielded a solubility (thermodynamic) at 5 h in data set [1] of over 2 µg/mL.

Consider `CC(C)CN1C(=O)[C@@H](NC(=O)Nc2ccc(-c3nn[nH]n3)cc2)N=C(c2ccccc2)c2ccccc21`, for which the thermodynamic solubility at 5 h in data set [5] was over 11000 µg/mL; in data set [6], 1400 µg/mL (≈ 2.83 mM). This molecule also came in with an IC50 in data set [2] of 1430 nM. The molecule `CN1C(=O)C(NC(=O)Nc2ccc(C(=O)O)cc2)N=C(c2ccccc2)c2ccccc21` (single isomer, unassigned) yielded an IC50 in data set [3] of 1550 nM. This molecule registered a thermodynamic solubility at 5 h in data set [1] of 4700 µg/mL (≈ 11 mM). In data set [3], `CN1C(=O)[C@H](NC(=O)Nc2ccc(-c3nn[nH]n3)cc2)N=C(c2ccccc2)c2ccccc21` gave an IC50 of 6.16 nM. Regarding `CN1C(=O)[C@H](NC(=O)Nc2ccc(-c3nc(=O)o[nH]3)cc2)N=C(c2ccccc2)c2ccccc21`, the IC50 in data set [3] is 15.4 nM.

One may read the thermodynamic solubility as solubility found after equilibrating the solid with the medium. What is called IC50 is the concentration at which inhibition is half-maximal. The low end stands for greater potency in that assay, the high end for weaker potency in that assay.
